19 compounds from publication PMC9421653 (Journal of Medicinal Chemistry, 2022) can be followed below.

≈ marks a conversion by molar mass, not a printed value. Entries after “also recorded” stand apart in the source; their conditions may differ.

The target in one data set is T1, human FFAR2 (Homo sapiens, UniProt O15552).
T1 construct: expressed in transfected cells; host or cells: Flp-In T-REx 293 cells, induced; membrane preparations
T1 sequence (O15552 1-330): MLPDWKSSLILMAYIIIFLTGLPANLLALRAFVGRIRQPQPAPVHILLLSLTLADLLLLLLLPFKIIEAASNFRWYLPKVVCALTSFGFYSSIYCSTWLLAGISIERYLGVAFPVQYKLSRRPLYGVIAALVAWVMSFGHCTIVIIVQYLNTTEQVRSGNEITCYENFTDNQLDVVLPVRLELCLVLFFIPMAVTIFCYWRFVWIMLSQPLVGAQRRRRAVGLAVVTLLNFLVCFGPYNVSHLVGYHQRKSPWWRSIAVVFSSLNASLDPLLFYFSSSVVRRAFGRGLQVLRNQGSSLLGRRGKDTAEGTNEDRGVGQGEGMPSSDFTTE
The data set can be described thus: [35S]GTPγS binding, block of C3 (propionate) at FFAR2. It is filed as biochemical. The following applies: tested at 10 μM. (GTPγS resists hydrolysis and so accumulates on activated G proteins.)

A further data set deals with T2, human FFAR3 (Homo sapiens, UniProt O14843).
T2 construct: expressed in transfected cells; host or cells: Flp-In T-REx 293 cells, induced; membrane preparations
T2 sequence (O14843 1-346): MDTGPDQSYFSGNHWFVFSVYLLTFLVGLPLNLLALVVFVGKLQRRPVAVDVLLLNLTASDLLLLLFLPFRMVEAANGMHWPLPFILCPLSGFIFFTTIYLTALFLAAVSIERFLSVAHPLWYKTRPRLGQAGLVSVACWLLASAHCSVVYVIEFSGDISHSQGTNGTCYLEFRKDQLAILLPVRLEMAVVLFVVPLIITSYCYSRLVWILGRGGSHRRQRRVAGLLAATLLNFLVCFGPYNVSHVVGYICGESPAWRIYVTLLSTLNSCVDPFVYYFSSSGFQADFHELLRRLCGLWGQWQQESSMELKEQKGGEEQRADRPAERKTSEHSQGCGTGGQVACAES
The data set is described as follows: [35S]GTPγS binding, block of C3 (propionate) at FFAR3. Format: biochemical. The note with it: tested at 10 μM.

The nature of data set [1]: Log D7.4 (distribution coefficient). Format: physicochemical. The note with it: pH 7.4.
The nature of a further data set: physchem. The source says:
DPI = 4,5-Diphenylimidazole
(2 pictures or pasted objects on this page, not shown here)

Data set [2] is described as follows: Mouse hepatocyte stability. It is filed as in vitro ADME. The following applies: hepatocytes, read-out: mouse heps t1/2.
The subject of the next data set is mouse plasma protein. The data set is described as follows: Mouse plasma protein binding. It is filed as in vitro ADME.
The next data set is described as follows: in vitro. The following applies: human, microsomes.
In data set [3] the target is T3, human GPR84 (Homo sapiens, UniProt P04899+Q9NQS5).
T3 construct: expressed in transfected cells; host or cells: Flp-In T-REx 293 cells, doxycycline-induced; membrane preparations
The data set can be described thus: biochemical. It is filed as biochemical. The following applies: for LLE: LLE = pIC50 – CLog P; for GTPγS (pIC50): [35S]GTPγS assay, negative log of the IC50 in molar, mean ± SEM.

For data set [4], the target named is T4, human GPR84 (Homo sapiens, UniProt Q9NQS5).
T4 construct: expressed in transfected cells; host or cells: Flp-In T-REx 293 cells, doxycycline-induced; membrane preparations
The data set is described as follows: biochemical. The note with it: [35S]GTPγS assay; negative log of the IC50 in molar; mean ± SEM; read-out: GTPγS (pIC50) (converted). Format: biochemical.

The nature of data set [5]: In vivo mouse PK, IV dosing. The note with it: IV (1 mg/kg), CV % in parenthesis. As to the method: (§1) Mouse pharmacokinetic studies were carried out by Xenogesis Ltd. (Nottingham, U.K.). All life phases were conducted in accordance with the local Ethics Review process.
Male C57BL/6J mice (n = 3, Charles River, U.K.) were intravenously administered with a dose of 1 mg/kg of the appropriate compound (formulation 5% v/v DMSO in 20% w/v HPCD in water). […] Plasma concentrations were determined by LC/MS/MS. LC/MS/MS analysis was performed using a Thermo TSQ Quantiva with Thermo Vanquish UPLC system on a Luna Omega C18 column. The plasma concentrations were simulated by nonparametric analysis from the plasma concentrations obtained in the PK study using Phoenix WinNonlin.

Data set [6] is described as follows: In vivo mouse PK, PO dosing. As to the method: as §1
Male C57BL/6J mice (n = 3, Charles River, U.K.) were orally administered with a dose of 10 mg/kg of the appropriate compound (formulation 0.5% w/v methylcellulose in water). […] Plasma concentrations were determined by LC/MS/MS. LC/MS/MS analysis was performed using a Thermo TSQ Quantiva with Thermo Vanquish UPLC system on a Luna Omega C18 column. The plasma concentrations were simulated by nonparametric analysis from the plasma concentrations obtained in the PK study using Phoenix WinNonlin.

Where [7] appears, read: pH 7.4, Kinetic Solubility, R=1, PBS pH7.4 in 2% DMSO by LC-MS, replicate 1.
Where [8] appears, read: pH 7.4, Kinetic Solubility, R=2, PBS pH7.4 in 2% DMSO by LC-MS, replicate 2.
Setting [9] is: pH 7.4, kinetic solubility, PBS pH7.4 in 2% DMSO.
Setting [10] is: pH 7.4, Kinetic Solubility, R=1, PBS pH7.4 in 2% DMSO by plate reader, replicate 1.
[11] abbreviates: pH 7.4, Kinetic Solubility, R=2, PBS pH7.4 in 2% DMSO by plate reader, replicate 2.
Setting [12] is: PO (10 mg/kg), CV % in parenthesis.
Setting [13] is: pH 7.4, Kinetic Solubility, Mean, PBS pH7.4 in 2% DMSO by LC-MS.
[14] abbreviates: pH 7.4, Kinetic Solubility, Mean, PBS pH7.4 in 2% DMSO by plate reader.

T3 sequence (Q9NQS5+P04899 fused): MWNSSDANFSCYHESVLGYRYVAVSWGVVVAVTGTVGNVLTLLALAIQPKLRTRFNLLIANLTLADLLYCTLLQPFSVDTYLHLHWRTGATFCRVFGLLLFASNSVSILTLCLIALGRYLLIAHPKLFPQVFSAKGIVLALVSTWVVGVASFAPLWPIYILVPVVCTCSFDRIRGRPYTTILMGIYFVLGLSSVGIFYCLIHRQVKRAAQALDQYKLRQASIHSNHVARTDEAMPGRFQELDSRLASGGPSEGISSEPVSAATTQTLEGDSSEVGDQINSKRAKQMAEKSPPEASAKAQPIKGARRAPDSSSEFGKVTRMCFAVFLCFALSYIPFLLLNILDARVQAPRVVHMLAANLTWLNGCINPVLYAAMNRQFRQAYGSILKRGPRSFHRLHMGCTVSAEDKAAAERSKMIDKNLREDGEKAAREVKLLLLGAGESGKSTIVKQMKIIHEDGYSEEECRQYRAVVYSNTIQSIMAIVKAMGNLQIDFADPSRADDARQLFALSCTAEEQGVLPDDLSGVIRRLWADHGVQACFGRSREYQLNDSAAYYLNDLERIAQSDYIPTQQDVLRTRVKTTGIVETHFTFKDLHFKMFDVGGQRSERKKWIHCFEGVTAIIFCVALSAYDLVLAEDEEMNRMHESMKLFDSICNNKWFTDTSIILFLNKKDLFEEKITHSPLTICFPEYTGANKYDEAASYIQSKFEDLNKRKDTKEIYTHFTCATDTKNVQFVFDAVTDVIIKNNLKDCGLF
T4 sequence (Q9NQS5+P04899 fused): as above

Turning to `c1ccc(-c2nnc(Cc3c[nH]c4ccccc34)nc2-c2ccccc2)cc1` [Compound 4, 3-((5,6-Diphenyl-1,2,4-triazin-3-yl)methyl)-1H-indole], the “block of the actions of the C3 fatty acid propionate at FFAR2” value on human FFAR2 was “no ability to block; also recorded: did not block”. Also, at human FFAR3, the “block of the actions of the C3 fatty acid propionate at FFAR3” value is recorded as “no ability to block; also recorded: did not block”. In [1], the logD (in general, lipophilicity at a set pH, counting ionised and neutral species) turned out to be 4.24. For the same compound, the kinetic solubility (as a rule, the concentration staying in solution when a stock, usually in DMSO, is diluted into the medium) in the data set “physchem” (setting [7]) was 1.5 µM (≈ 0.544 µg/mL); in “physchem” (setting [8]), 1.3 µM (≈ 0.471 µg/mL); in “physchem” (setting [9]), 1.4 µM (≈ 0.507 µg/mL). Further, the half-life in data set [2] is 4.4 min; in “in vitro”, 21.8 min. Further, the “mouse PPB” value with mouse plasma protein was <1 %free.
On human GPR84 [3], `Cc1nnc(Cc2c[nH]c3ccccc23)nc1-c1ccccc1` [Compound 28, 3-[(6-Methyl-5-phenyl-1,2,4-triazin-3-yl)methyl]-1H-indole] displayed an LLE of 1.73. On human GPR84 [4], the IC50 is 10200 nM.
For `Cc1nc(Cc2c[nH]c3ccccc23)nnc1-c1ccccc1` [Compound 29, 3-[(5-Methyl-6-phenyl-1,2,4-triazin-3-yl)methyl]-1H-indole], in that order: 1.99 and 5620 nM.
Consider `c1ccc(-c2nc(Cc3c[nH]c4ccccc34)nnc2-c2ccc(CN3CCOCC3)cc2)cc1` [Compound 42, 4-(4-(3-((1H-Indol-3-yl)methyl)-5-phenyl-1,2,4-triazin-6-yl)benzyl)morpholine], for which the “GTPγS (pIC50)” value on human GPR84 [3] amounted to 8.28 ± 0.11. Further, the “block of the actions of the C3 fatty acid propionate at FFAR2” value on human FFAR2 was “no ability to block; also recorded: did not block”. Moreover, the “block of the actions of the C3 fatty acid propionate at FFAR3” value on human FFAR3 is reported as “no ability to block; also recorded: did not block”. In [1], this compound showed a logD of 3.84. Also, the kinetic solubility in “physchem” (setting [10]) stood at 12 µM (≈ 5.54 µg/mL); in “physchem” (setting [11]) it was 16 µM (≈ 7.39 µg/mL); in “physchem” (setting [9]), 14 µM (≈ 6.46 µg/mL). Moreover, the half-life in data set [2] was 16 min; in [5], 2.51 (6.55) h; in the data set “in vitro” it was 12.8 min. For the same compound, in the data set on mouse plasma protein, the “mouse PPB” value was <1 %free. Moreover, the AUCall is given as 420 (12.5) ng/mL·h in data set [5] and 1590 (18.7) ng/mL·h in [6] (setting [12]). In data set [5], the C0 is 394 (19.1) ng/mL. Further, in data set [5], the CL was 38.9 (13.9) mL/min/kg. In addition, the Vss in [5] is reported as 7.24 (9.2) L/kg. For the same compound, the time of peak concentration (Tmax) (in general, the time from dosing to the highest level) in data set [6] (PO (10 mg/kg)) was 60 min. The Cmax in data set [6] (setting [12]) is on record as 402 (31.8) ng/mL. Also, the bioavailability (commonly the share of a dose that reaches the circulation, judged against a reference dose that is usually intravenous) in data set [6] (male, C57BL/6J, plasma, PO (10 mg/kg) vs IV (1 mg/kg), CV % in parenthesis) was 36.8%.
As to `CC(=O)NCCNC(=O)c1ccc(-c2nnc(Cc3c[nH]c4ccccc34)nc2-c2ccccc2)cc1` [Compound 79, 4-(3-((1H-Indol-3-yl)methyl)-5-phenyl-1,2,4-triazin-6-yl)-N-(2-acetamidoethyl)benzamide], the “GTPγS (pIC50)” value on human GPR84 [3] was 6.26 ± 0.06.
On to `CN1CCN(C(=O)c2ccc(-c3nnc(Cc4c[nH]c5ccccc45)nc3-c3ccccc3)cc2)CC1=O` [Compound 80, 4-(4-(3-((1H-Indol-3-yl)methyl)-5-phenyl-1,2,4-triazin-6-yl)benzoyl)-1-methylpiperazin-2-one], for which the “GTPγS (pIC50)” value at human GPR84 [3] was found to be 6.69 ± 0.04.
The same measure, in the same setting: in the case of `NC(=O)CNC(=O)c1ccc(-c2nnc(Cc3c[nH]c4ccccc34)nc2-c2ccccc2)cc1` [Compound 81, 4-(3-((1H-Indol-3-yl)methyl)-5-phenyl-1,2,4-triazin-6-yl)-N-(2-amino-2-oxoethyl)benzamide] it was 5.80 ± 0.11.
For `O=C(c1ccc(-c2nc(Cc3c[nH]c4ccccc34)nnc2-c2ccccc2)cc1)N1CCOCC1` [Compound 83, (4-(3-((1H-Indol-3-yl)methyl)-6-phenyl-1,2,4-triazin-5-yl)phenyl)(morpholino)methanone], on human GPR84 [4], the IC50 was 209 nM.
Same read-out and setting: in the case of `CN(C)CCNC(=O)c1ccc(-c2nc(Cc3c[nH]c4ccccc34)nnc2-c2ccccc2)cc1` [Compound 84, 4-(3-((1H-Indol-3-yl)methyl)-6-phenyl-1,2,4-triazin-5-yl)-N-(2-(dimethylamino)ethyl)benzamide] it was 1000 nM; in that of `O=C(NCCO)c1ccc(-c2nc(Cc3c[nH]c4ccccc34)nnc2-c2ccccc2)cc1` [Compound 85, 4-(3-((1H-Indol-3-yl)methyl)-6-phenyl-1,2,4-triazin-5-yl)-N-(2-hydroxyethyl)benzamide], 28.8 nM.
Consider `CN1CCN(C(=O)c2ccc(-c3nc(Cc4c[nH]c5ccccc45)nnc3-c3ccccc3)cc2)CC1` [Compound 86, (4-(3-((1H-Indol-3-yl)methyl)-6-phenyl-1,2,4-triazin-5-yl)phenyl)(4-methylpiperazin-1-yl)methanone], for which the IC50 at human GPR84 [4] is 955 nM.
Still for that read-out and setting: to `COCCNC(=O)c1ccc(-c2nc(Cc3c[nH]c4ccccc34)nnc2-c2ccccc2)cc1` [Compound 87, 4-(3-((1H-Indol-3-yl)methyl)-6-phenyl-1,2,4-triazin-5-yl)-N-(2-methoxyethyl)benzamide] belongs 72.4 nM; to `CC(=O)NCCNC(=O)c1ccc(-c2nc(Cc3c[nH]c4ccccc34)nnc2-c2ccccc2)cc1` [Compound 88, 4-(3-((1H-Indol-3-yl)methyl)-6-phenyl-1,2,4-triazin-5-yl)-N-(2-acetamidoethyl)benzamide], 209 nM.
Consider `CN1CCN(C(=O)c2ccc(-c3nc(Cc4c[nH]c5ccccc45)nnc3-c3ccccc3)cc2)CC1=O` [Compound 89, 4-(4-(3-((1H-Indol-3-yl)methyl)-6-phenyl-1,2,4-triazin-5-yl)benzoyl)-1-methylpiperazin-2-one], for which the IC50 on human GPR84 [4] was 490 nM.
Turning to `NC(=O)CNC(=O)c1ccc(-c2nc(Cc3c[nH]c4ccccc34)nnc2-c2ccccc2)cc1` [Compound 90, 4-(3-((1H-Indol-3-yl)methyl)-6-phenyl-1,2,4-triazin-5-yl)-N-(2-amino-2-oxoethyl)benzamide], the IC50 on human GPR84 [4] was 380 nM.
For `c1ccc(-c2nc[nH]c2-c2ccccc2)cc1` [DPI, 4,5-Diphenylimidazole, reference compound], the kinetic solubility stood at 27 µM (≈ 5.95 µg/mL) in the data set “physchem” (setting [13]); 30 µM (≈ 6.61 µg/mL) in “physchem” (setting [14]); 25 µM (≈ 5.51 µg/mL) in “physchem” (setting [7]); 28 µM (≈ 6.17 µg/mL) in the data set “physchem” (setting [10]); 28 µM (≈ 6.17 µg/mL) in the data set “physchem” (setting [8]); 32 µM (≈ 7.05 µg/mL) in the data set “physchem” (setting [11]).
Regarding `CC(=O)N1CCN(c2ccc(OCC3COC(Cn4ccnc4)(c4ccc(Cl)cc4Cl)O3)cc2)CC1` (stereo not drawn) [Ketoconazole, reference compound], the solubility (kinetic) in the data set “physchem” (setting [13]) worked out at 103 µM (≈ 54.7 µg/mL); in the data set “physchem” (setting [14]), 129 µM (≈ 68.6 µg/mL); in the data set “physchem” (setting [7]) it was 101 µM (≈ 53.7 µg/mL); in “physchem” (setting [10]) it was 128 µM (≈ 68 µg/mL); in the data set “physchem” (setting [8]), 105 µM (≈ 55.8 µg/mL); in the data set “physchem” (setting [11]), 129 µM (≈ 68.6 µg/mL).
As to “Methyl 3-(3-((1H-Indol-3-yl)methyl)-5-phenyl-1,2,4-triazin-6-yl)benzoate [Compound 53]”, the “GTPγS (pIC50)” value on human GPR84 [3] was 6.40 ± 0.05.
Same read-out and setting: to “Methyl 3-(3-((1H-Indol-3-yl)methyl)-6-phenyl-1,2,4-triazin-5-yl)benzoate [Compound 54]” belongs 6.94 ± 0.03.
